Laboratory results reported in US9085606B2, “Beta amino acid derivatives as integrin antagonists” (Saint Louis University, priority 2012, dated 2015).

Assays:
[1] = target: T1, Recombinant human integrin αvβ5 (Homo sapiens, UniProt P06756+P18084); test: Solid Phase Receptor Assay for αvβ5 Function; conditions: binding to vitronectin-coated plate; read-out: αvβ5 SPRA IC50
T1 construct: purchased R&D Systems 2528-AV
Description: Solid Phase Receptor Assay for αvβ5 Function.
Wells were washed 3 times with 150 μL TBS+ and 150 μL of blocking buffer (TBS+ with 1% bovine serum albumin, Sigma A7906) were added. The plate was incubated for 1 hr at 37° C. and then washed 3× with TBS+ buffer. […] Compounds were diluted 1:100 into the integrin solution and then 50 μL added to empty wells of the washed vitronectin-coated plate according to a standard template with each sample repeated in triplicate. After incubation for two hours at room temperature, the plate was washed 3× with 150 μL of TBS+ buffer. To each well, 50 μL of biotinylated anti-αv antibody (R&D Systems, BAF1219) at 0.5 μg/mL in TBS+/0.1% BSA at 0.5 μg/mL were added and the plate covered and incubated for 1 hr at room temperature. After washing the plate 3× with 150 μL of TBS+ buffer, 50 μL of streptavidin-conjugated horseradish peroxidase (R&D Systems DY998) diluted in TBS+ blocking buffer were added to the wells and the plate incubated for 20 min at room temperature. The plate was washed 3× with TBS+ buffer followed by 50 μL of TMB substrate (Sigma T4444) added to each well and the plate incubated for 20 min at room temperature. The reaction was optionally stopped with 25 μL of Stop Solution (Sigma S5689). Plates were read by colorimetric detection at 650 nm wavelength using a Tecan Safire II plate reader.

[2] = target: T2, Recombinant human integrin αvβ3 (Homo sapiens, UniProt P05106+P06756); test: Solid Phase Receptor Assay for αvβ3 Function; conditions: binding to vitronectin-coated plate; read-out: αvβ3 SPRA IC50
T2 construct: purchased R&D Systems 3050-AV
T2 sequence (P06756 31-992 limits assumed): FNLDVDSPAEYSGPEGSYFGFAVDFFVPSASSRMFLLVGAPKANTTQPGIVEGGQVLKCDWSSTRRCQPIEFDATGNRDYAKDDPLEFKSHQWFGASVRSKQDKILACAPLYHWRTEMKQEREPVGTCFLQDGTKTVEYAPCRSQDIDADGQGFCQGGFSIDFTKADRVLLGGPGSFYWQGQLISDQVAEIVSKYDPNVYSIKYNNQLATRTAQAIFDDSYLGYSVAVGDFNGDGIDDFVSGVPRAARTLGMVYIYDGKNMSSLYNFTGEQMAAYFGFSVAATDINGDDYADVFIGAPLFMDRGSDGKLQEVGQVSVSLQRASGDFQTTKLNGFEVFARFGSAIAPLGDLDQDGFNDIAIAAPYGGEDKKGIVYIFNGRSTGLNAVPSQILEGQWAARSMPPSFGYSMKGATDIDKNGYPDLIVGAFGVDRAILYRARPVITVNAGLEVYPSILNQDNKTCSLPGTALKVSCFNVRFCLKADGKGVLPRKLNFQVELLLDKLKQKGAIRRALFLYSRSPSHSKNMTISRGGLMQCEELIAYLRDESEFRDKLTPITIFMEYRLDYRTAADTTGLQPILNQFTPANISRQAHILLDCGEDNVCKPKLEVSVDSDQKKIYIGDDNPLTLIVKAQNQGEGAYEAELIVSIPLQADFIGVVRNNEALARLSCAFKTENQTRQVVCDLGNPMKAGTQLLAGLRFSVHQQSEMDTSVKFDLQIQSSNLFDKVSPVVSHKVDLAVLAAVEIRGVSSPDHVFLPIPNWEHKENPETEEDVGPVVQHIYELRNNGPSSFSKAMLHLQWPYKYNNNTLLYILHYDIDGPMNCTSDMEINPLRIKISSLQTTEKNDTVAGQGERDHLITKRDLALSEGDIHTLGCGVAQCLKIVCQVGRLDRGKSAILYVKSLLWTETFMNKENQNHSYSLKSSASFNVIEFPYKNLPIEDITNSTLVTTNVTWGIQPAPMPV
T2 sequence (P05106 27-718 limits assumed): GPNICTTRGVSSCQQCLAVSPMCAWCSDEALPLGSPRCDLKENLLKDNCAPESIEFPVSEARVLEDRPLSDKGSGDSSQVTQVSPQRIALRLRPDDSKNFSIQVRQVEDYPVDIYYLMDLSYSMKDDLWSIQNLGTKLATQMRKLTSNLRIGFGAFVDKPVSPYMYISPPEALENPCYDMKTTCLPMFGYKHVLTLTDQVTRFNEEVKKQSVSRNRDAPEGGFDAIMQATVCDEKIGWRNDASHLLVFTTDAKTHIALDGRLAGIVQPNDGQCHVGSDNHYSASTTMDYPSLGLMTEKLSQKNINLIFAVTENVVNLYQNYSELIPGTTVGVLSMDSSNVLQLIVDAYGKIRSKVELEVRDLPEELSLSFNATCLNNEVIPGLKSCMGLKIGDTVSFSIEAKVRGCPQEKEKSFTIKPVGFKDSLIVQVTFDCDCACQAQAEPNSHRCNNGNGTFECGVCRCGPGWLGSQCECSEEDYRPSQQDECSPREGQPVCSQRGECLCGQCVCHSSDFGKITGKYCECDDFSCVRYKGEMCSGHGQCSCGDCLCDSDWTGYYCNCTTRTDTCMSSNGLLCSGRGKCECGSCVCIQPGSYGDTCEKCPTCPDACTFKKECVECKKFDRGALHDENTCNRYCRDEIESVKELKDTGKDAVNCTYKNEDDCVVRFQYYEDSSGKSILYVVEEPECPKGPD
Description: Solid Phase Receptor Assay for αvβ3 Function.
Wells were washed 3 times with 150 μL TBS+ and 150 μL of blocking buffer (TBS+ with 1% bovine serum albumin, Sigma A7906) were added. The plate was incubated for 1 hr at 37° C. and then washed 3× with TBS+ buffer. […] Compounds were diluted 1:100 into the integrin solution and then 50 μL added to empty wells of the washed vitronectin-coated plate according to a standard template with each sample repeated in triplicate. After incubation for two hours at room temperature, the plate was washed 3× with 150 μL of TBS+ buffer. To each well, 50 μL of biotinylated anti-αv antibody (R&D Systems, BAF1219) at 0.5 μg/mL in TBS+/0.1% BSA were added and the plate covered and incubated for 1 hr at room temperature. After washing the plate 3× with 150 μL of TBS+ buffer, 50 μL of streptavidin-conjugated horseradish peroxidase (R&D Systems, DY998) diluted in TBS+ blocking buffer were added to the wells and the plate incubated for 20 min at room temperature. The plate was washed 3× with TBS+ buffer followed by 50 μL of TMB substrate (Sigma, T4444) added to each well and the plate was incubated for 20 min at room temperature. The reaction was optionally stopped with 25 μL of Stop Solution (Sigma, S5689). Plates were read by colorimetric detection at 650 nm wavelength using a Tecan S afire II plate reader.

[3] = target: T3, Recombinant human integrin αvβ8 (Homo sapiens, UniProt P06756+P26012); test: Solid Phase Receptor Assay for αvβ8 Function; conditions: binding to LAP-coated plate; read-out: αvβ8 SPRA IC50
T3 construct: purchased R&D Systems 4135-AV
T3 sequence (P06756 31-992 limits assumed): as the sequence (P06756 31-992 limits assumed) above
T3 sequence (P26012 43-684 limits assumed): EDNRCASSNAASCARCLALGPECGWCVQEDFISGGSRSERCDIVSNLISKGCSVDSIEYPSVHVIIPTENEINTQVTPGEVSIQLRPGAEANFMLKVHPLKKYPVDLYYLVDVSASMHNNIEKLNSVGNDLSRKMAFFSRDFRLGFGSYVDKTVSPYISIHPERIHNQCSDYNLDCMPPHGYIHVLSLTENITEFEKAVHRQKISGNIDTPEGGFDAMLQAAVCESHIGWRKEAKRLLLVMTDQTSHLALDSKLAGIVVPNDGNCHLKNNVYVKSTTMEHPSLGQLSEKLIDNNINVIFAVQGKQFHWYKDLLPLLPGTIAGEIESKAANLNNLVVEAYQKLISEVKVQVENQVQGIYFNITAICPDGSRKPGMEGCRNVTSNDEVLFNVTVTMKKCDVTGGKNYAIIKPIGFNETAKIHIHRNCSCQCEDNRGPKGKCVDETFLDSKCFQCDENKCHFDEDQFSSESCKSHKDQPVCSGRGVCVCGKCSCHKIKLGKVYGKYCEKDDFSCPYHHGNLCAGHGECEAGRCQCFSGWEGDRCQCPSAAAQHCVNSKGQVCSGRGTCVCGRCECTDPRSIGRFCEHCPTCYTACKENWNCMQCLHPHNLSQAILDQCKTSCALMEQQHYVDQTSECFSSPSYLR
Description: Solid Phase Receptor Assay for αvβ8 Function.
Wells were washed 3 times with 150 μL TBS+ and 150 μL of blocking buffer (TBS+ with 1% bovine serum albumin, Sigma A7906) were added. The plate was incubated for 1 hr at 37° C. and then washed 3× with TBS+. […] Compounds were diluted 1:100 into the integrin solution and 50 μL added to empty wells of the washed LAP-coated plate according to a standard template with each sample repeated in triplicate. After incubation for two hours at room temperature, the plate was washed 3× with 150 μL of TBS+. To each well, 50 μL of biotinylated anti-αv antibody (R&D Systems, BAF1219) at 1 μg/mL in TBS+/0.1% BSA were added and the plate was covered and incubated for 1 hr at room temperature. After washing the plate 3× with 150 μL of TBS+ buffer, 50 μL of streptavidin-conjugated horseradish peroxidase (R&D Systems, DY998) diluted in TBS+ blocking buffer were added to the wells and the plate incubated for 20 min at room temperature. The plate was washed 3× with TBS+ followed by 50 μL of TMB substrate (Sigma T4444) added to each well and the plate incubated for 20 min at room temperature. The reaction was optionally stopped with 25 μL of Stop Solution (Sigma S5689). Plates were read by colorimetric detection at 650 nm wavelength using a Tecan Safire II plate reader.

[4] = target: T4, Recombinant human integrin α5β1 (Homo sapiens, UniProt P05556+P08648); test: Solid Phase Receptor Assay for α5β1 Function; conditions: binding to fibronectin-coated plate; read-out: α5β1 SPRA IC50
T4 construct: purchased R&D Systems 3230-A5
T4 sequence (P08648 42-995 limits assumed): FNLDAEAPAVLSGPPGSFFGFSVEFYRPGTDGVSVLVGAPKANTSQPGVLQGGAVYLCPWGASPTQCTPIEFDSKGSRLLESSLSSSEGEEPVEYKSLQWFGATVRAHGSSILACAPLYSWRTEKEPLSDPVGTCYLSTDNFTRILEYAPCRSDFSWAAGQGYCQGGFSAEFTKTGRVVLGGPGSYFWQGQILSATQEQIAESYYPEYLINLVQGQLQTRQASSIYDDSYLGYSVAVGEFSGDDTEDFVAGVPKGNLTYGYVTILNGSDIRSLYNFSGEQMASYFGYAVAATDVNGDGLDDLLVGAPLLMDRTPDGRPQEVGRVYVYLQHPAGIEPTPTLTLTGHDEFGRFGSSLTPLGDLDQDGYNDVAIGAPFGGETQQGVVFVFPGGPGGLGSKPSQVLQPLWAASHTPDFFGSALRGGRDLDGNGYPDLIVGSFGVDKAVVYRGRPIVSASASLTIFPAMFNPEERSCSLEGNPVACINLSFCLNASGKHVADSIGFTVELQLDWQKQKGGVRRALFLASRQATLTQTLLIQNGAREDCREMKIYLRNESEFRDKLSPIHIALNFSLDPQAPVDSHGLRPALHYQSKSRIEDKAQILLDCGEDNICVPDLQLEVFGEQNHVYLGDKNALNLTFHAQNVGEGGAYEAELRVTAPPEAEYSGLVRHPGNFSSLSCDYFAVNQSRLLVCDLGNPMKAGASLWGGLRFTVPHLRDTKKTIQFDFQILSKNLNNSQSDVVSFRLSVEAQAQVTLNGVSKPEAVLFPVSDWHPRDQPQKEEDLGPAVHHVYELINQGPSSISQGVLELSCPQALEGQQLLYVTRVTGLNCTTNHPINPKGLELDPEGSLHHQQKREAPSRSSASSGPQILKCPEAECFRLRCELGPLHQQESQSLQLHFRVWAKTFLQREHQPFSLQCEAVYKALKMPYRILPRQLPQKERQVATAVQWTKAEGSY
T4 sequence (P05556 21-728 limits assumed): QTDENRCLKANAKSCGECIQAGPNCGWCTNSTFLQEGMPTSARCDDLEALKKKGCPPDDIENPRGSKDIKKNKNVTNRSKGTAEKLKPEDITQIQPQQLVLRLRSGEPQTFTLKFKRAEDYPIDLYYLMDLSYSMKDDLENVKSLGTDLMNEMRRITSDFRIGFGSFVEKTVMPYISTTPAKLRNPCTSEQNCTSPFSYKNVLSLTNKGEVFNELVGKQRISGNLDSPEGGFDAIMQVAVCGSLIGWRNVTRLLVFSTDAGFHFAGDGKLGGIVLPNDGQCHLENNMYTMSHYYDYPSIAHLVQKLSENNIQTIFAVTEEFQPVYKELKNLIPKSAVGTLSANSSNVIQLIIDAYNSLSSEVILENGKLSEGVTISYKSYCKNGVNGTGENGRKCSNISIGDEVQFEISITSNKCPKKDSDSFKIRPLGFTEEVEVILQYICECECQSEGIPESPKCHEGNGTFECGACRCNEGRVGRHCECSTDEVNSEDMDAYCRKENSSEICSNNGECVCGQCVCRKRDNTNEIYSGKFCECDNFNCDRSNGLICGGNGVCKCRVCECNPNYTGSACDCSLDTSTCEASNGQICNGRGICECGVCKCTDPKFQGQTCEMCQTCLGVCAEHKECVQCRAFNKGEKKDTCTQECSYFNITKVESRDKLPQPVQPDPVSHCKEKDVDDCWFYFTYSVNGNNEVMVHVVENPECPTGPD
Description: Solid Phase Receptor Assay for α5β1 Function.
Wells were washed 3 times with 150 μL TBS+ and 150 μl of blocking buffer (TBS+ with 1% bovine serum albumin, Sigma A7906) were added. The plate was incubated for 1 hr at 37° C. and then washed 3× with TBS+ buffer. […] Compounds were diluted 1:100 into the integrin solution and then 50 μL added to empty wells of the washed fibronectin-coated plate according to a standard template with each sample repeated in triplicate. After incubation for two hours at room temperature, the plate was washed 3× with 150 μL of TBS+ buffer. To each well, 50 μL of biotinylated anti-α5 antibody (R&D Systems, BAF1864) at 0.5 ug/mL in TBS+/0.1% BSA were added and the plate covered and incubated for 1 hr at room temperature. After washing the plate 3× with 150 μL of TBS+ buffer, 50 μL of streptavidin-conjugated horseradish peroxidase (R&D Systems, DY998) diluted in TBS+ blocking buffer were added to the wells and the plate incubated for 20 min at room temperature. The plate was washed 3× with TBS+ buffer followed by 50 μL of room temperature TMB substrate (Sigma, T444) added to each well and the plate incubated for 20 min at room temperature. The reaction was optionally stopped with 25 μL of Stop Solution (Sigma S5689). Plates were read by colorimetric detection at 650 nm wavelength using a Tecan Safire II plate reader.

T1 sequence (P06756 31-992 limits assumed): as the sequence (P06756 31-992 limits assumed) above
T1 sequence (P18084 24-719 limits assumed): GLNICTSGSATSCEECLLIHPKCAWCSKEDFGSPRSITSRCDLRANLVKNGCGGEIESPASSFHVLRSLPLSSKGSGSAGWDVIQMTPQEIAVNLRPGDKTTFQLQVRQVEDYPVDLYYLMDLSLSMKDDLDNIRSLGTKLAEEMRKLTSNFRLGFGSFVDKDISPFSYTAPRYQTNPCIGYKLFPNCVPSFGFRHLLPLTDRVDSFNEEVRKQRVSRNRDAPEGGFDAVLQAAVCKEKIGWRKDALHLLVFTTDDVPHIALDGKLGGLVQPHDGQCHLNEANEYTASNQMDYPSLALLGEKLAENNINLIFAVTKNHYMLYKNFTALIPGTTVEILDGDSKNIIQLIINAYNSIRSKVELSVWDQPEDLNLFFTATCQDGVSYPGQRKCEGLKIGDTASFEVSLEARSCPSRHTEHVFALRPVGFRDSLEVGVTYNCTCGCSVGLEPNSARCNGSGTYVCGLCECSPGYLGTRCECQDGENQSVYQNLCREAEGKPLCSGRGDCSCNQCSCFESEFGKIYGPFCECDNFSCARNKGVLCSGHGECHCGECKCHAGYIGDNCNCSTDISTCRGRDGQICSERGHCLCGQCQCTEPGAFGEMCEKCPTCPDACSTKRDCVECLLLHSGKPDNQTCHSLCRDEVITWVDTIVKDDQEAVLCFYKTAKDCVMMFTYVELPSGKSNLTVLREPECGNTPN

SMILES | IC50 [1] | IC50 [2] | IC50 [3] | IC50 [4]
O=C(O)C[C@H](NC(=O)CNC(=O)c1cc(O)cc(NC2=NCC(O)CN2)c1)c1cc(Cl)cc(C2(CO)CCOCC2)c1 (stereo partly drawn) [Example 17, (3S)-3-(3-chloro-5-(4-(hydroxymethyl)tetrahydro-2H-pyran-4-yl)phenyl)-3-(2-(3-hydroxy-5-((5-hydroxy-1,4,5,6-tetrahydropyrimidin-2-yl)amino)benzamido)acetamido)propanoic acid] | 0.5 nM | 4 nM | 0.4 nM | 0.4 nM
CC(C)(C#N)c1cc(Br)cc([C@H](CC(=O)O)NC(=O)CNC(=O)c2cc(O)cc(NC3=NCC(O)CN3)c2)c1 (stereo partly drawn) [Example 11, (3S)-3-(3-bromo-5-(2-cyanopropan-2-yl)phenyl)-3-(2-(3-hydroxy-5-((5-hydroxy-1,4,5,6-tetrahydropyrimidin-2-yl)amino)benzamido)acetamido)propanoic acid] | 0.7 nM | 3.4 nM | 0.2 nM | 0.3 nM
CC(C)(C)c1cc(Br)cc([C@H](CC(=O)O)NC(=O)CNC(=O)c2cccc(NC(=N)N)c2)c1 [Example 5, (S)-3-(3-bromo-5-(tert-butyl)phenyl)-3-(2-(3-guanidinobenzamido)acetamido) propanoic acid] | 1.6 nM | 2.6 nM | 0.2 nM | 0.6 nM
COCC(C)(C)c1cc(Cl)cc([C@H](CC(=O)O)NC(=O)CNC(=O)c2cc(O)cc(NC3=NCC(O)CN3)c2)c1 (stereo partly drawn) [Example 14, (3S)-3-(3-chloro-5-(1-methoxy-2-methylpropan-2-yl)phenyl)-3-(2-(3-hydroxy-5-((5-hydroxy-1,4,5,6-tetrahydropyrimidin-2-yl)amino)benzamido)acetamido)propanoic acid] | 0.3 nM | 1.7 nM | 0.3 nM | 0.2 nM
CC(C)(C)c1cc([C@H](CC(=O)O)NC(=O)CNC(=O)c2cncc(NC(=N)N)c2)cc(C(C)(C)C)c1 [Example 10, (S)-3-(3,5-di-tert-butylphenyl)-3-(2-(5-guanidinonicotinamido)acetamido)propanoic acid] | 71 nM | 172 nM | 0.2 nM | 0.5 nM
CC(C)(C)c1cc(Br)cc([C@H](CC(=O)O)NC(=O)CNC(=O)c2cccc(NC3=NCCN3)c2)c1 [Example 7, (S)-3-(3-bromo-5-(tert-butyl)phenyl)-3-(2-(3-((4,5-dihydro-1H-imidazol-2-yl)amino)benzamido)acetamido)propanoic acid] | 0.5 nM | 1.3 nM | 0.1 nM | 0.7 nM
CC(C)(O)c1cc(Cl)cc([C@H](CC(=O)O)NC(=O)CNC(=O)c2cc(O)cc(NC3=NCC(O)CN3)c2)c1 (stereo partly drawn) [Example 4, (3S)-3-(3-chloro-5-(2-hydroxypropan-2-yl)phenyl)-3-(2-(3-hydroxy-5-((5-hydroxy-1,4,5,6-tetrahydropyrimidin-2-yl)amino)benzamido)acetamido)propanoic acid] | 0.4 nM | 2.3 nM | 0.6 nM | 0.7 nM
